From PMC11984388, “A brain-accessible peptide modulates stroke inflammatory response and neurotoxicity by targeting BDNF-receptor TrkB-T1 specific interactome” (Theranostics, 2025)
Residues, ends and D or L forms follow the SMILES beside them. *: point of attachment. Biotin = O=C1N[C@H]2[C@H](CS[C@H]2CCCCC(=O)*)N1

Legend:
[1] = Peptide delivery to brain cortex of undamaged animals; assay type: in vivo; conditions: 3 nmol/g i.v. (retro-orbital), undamaged male mice, sacrificed 30 min after; Fluorescein Avidin D (Fig S5)
Experimental: (§1) Vehicle (saline), Bio-TMyc or Bio-TT1Ct (3 nmol/g) were retro-orbitally injected in mice one hour after induction of photothrombotic damage or, alternatively, undamaged animals. In the first case, animals were sacrificed 5 h after damage induction while, the second group was sacrificed 30 min after peptide administration. The details of brain fixation and cryoprotection for peptide visualization and/or immunohistochemistry are provided in the Supplementary material. […]
(§2) Finally, the sa mple s were mounted in Prolong Diamond. The images were acquired using an inverted Zeiss LSM 710 laser confocal microscope (Jena, Germany) with a 40x or 63x Plan-Apochromatic oil immersion objective. Images corre spond to single se ctions and were normalized for eac h colour se para tely and process ed for presenta tion with ImageJ (NIH Image) and Fiji.
(§3) Peptide visualization and immunohistochemis tr y in brain cortex
(§4) For peptide visua liz ation in undamaged or damaged brains, animals were deeply anes thetized and intra cardially perfus ed with cold PBS and 4% paraformalde hyde in PBS. Brains were post-fixed in the sa m e fixative at 4°C for 24 h and cryoprote cted in 30% suc ros e for 48 h at 4°C. […]

[2] = Peptide detection in brain cortex after photothrombotic ischemia; assay type: in vivo; conditions: 3 nmol/g i.v. 1 h after damage, male and female mice sacrificed 5 h post-stroke; Fluorescein Avidin D (Fig 5C)
Experimental: as §1, §2, §3, §4

pCREB = test: Western blot in excitotoxicity; assay type: cell-based, rat; conditions: peptide 15 µM 30 min, NMDA 30-120 min; normalized to NSE; differences not statistically significant compared to TMyc; n = 5
Experimental: (§5) amounts were combined with streptavidin-agarose beads previously was hed with NP-40 lysis buffer and incubated at room temperature for 1.5 h with agitation. Sedimented beads were was hed 3 times with the NP-40 lysis buffer to remove poss ible non-spe cifica lly bounded proteins, and peptides and their interacting proteins were released by incubation at 50°C for 40 min in RI P A modifie d buffer (50 mM Tris HCl pH 8.0, 150 mM NaC l, 1% sodium deoxycholate , 1% NP-40) combined with protease and phospha tase inhibitors as before .
(§6) Prote omic analysis of Bio-sT T1Ct-inte racting proteins
(§7) Prote omic analys is was performed in Pros taR (1.34.6) software tool, using the protocol for protein-level analys is. Prote omic abundanc es from 4 independent experiments were log-transforme d and filtered follow ing quality parameters: proteins present in at least >50% of one of the conditions and identifie d by at least 2 unique peptides . After, data was normalized by LOESS (locally es tima te d sc atterplot smoothing, k=0.7), and POV (par tially obse rved values ) and ME C (miss ing in entire condition values ) imputations were made using, respec tive ly, KNN (k-neares t-neighbour k=10) and det.quantile (quantile imputation using quantile = 2,5).
(§8) Differential analys is was performed using limma (3.16). Multiple comparison p-values where calibrated using sl i m algorithm and the FDR (fals e disc overy rate) is indicated for eac h comparison. For PCA (principal component analys is ), filte red, normalized and imputed data was use d corre cted for batch ef fe ct using removeBatc hEffe ct {limma} function. […]
(§9) dry milk solution in Tris Buffere d Saline-Tween (TBS-T, 20 mM Tris HCl pH 7.5, 137 mM NaC l, 0.05% Tween-20) and incubated overnight at 4°C with prima ry antibodies . […] To conclude, immunore activity was detecte d using Clar ity Wes ter n ECL Blotting Substrate (BioRad) and band intensity was quantified by dens itome tric analys is (Photos hop, Adobe). […] Multiple independent experiments were car r ied out and quantitated as detailed in the figure legends . […]

MEF2D = test: Western blot in excitotoxicity; assay type: cell-based, rat; conditions: peptide 15 µM 30 min, NMDA 30-120 min; normalized to NSE; differences not statistically significant compared to TMyc; n = 5
Experimental: as §5, §6, §7, §8, §9

TrkB-T1 = test: Western blot in excitotoxicity; assay type: cell-based, rat; conditions: peptide 15 µM 30 min, NMDA 30-120 min; compared to TMyc
Experimental: as §5, §6, §7, §8, §9

[3] = Beam walking test after photothrombotic ischemia; assay type: in vivo, mice; conditions: male mice

Molecule	Crossing of the BBB and delivery to cortical cells [1]	Time of peptide detection in brain cortex after administration [2]	Effect on pCREB levels (pCREB)	Effect on MEF2D levels (MEF2D)	Effect on TrkB-T1 regulation (TrkB-T1)	Recovery in beam walking test ([3]; TT1Ct versus TMyc slips) [%]	Number of slips ([3]; contralateral hind paw slips, beam walking 24 h after insult, 3 nmol/g i.v. 1 h after damage, mean ± SEM, n = 10-12)
CC[C@H](C)[C@H](NC(=O)[C@H](CC(C)C)NC(=O)[C@H](CCCCN)NC(=O)[C@H](CCC(N)=O)NC(=O)[C@H](CCC(=O)O)NC(=O)[C@H](CCC(=O)O)NC(=O)[C@H](C)NC(=O)[C@H](CCCNC(=N)N)NC(=O)[C@H](CCCNC(=N)N)NC(=O)[C@H](CCCNC(=N)N)NC(=O)[C@H](CCC(N)=O)NC(=O)[C@H](CCCNC(=N)N)NC(=O)[C@H](CCCNC(=N)N)NC(=O)[C@H](CCCCN)NC(=O)[C@H](CCCCN)NC(=O)[C@H](CCCNC(=N)N)NC(=O)CNC(=O)[C@H](Cc1ccc(O)cc1)NC(=O)CCCC[C@@H]1SC[C@@H]2NC(=O)N[C@@H]21)C(=O)N[C@@H](CO)C(=O)N[C@@H](CCC(=O)O)C(=O)N[C@@H](CCC(=O)O)C(=O)N[C@@H](CC(=O)O)C(=O)N[C@@H](CC(C)C)C(=O)N[C@@H](CC(C)C)C(=O)N[C@@H](CCCNC(=N)N)C(N)=O [Bio-TMyc, reference compound] (Biotin-YGRKKRRQRRRAEEQKLISEEDLLR-NH2)	able to cross the BBB and efficiently reach most cortical cells in 30 min	at least 4 h					
Ac-YGRKKRRQRRRPPFVLFHKIPLDG-NH2 [TT1Ct]			partially preserved	partially preserved	did not have significant effects	49	5 ± 1
